Experiments:
powdery mildew = assay: Sprays against powdery mildew infestations on nursery grown plants; format: in vivo; conditions: for eliminating infestations of powdery mildew: single ingredient sprayed at 1 tablespoon per gallon of water, nursery grown roses, gerbera daisies, ornamental peas, trumpet vines, chrysanthemums, grapevines
Source text: One hundred grams of potassium bicarbonate is blended with one hundred grams of carrageenan.

fusarium = conditions: in the literature; cited from earlier work
[1] = tested on: Tomato Russet Mite (Aculops lycopersici); conditions: sprays on young tomato plants naturally infested
Source text: Fifty grams of potassium sorbate and fifty grams of sodium bicarbonate are mixed with one hundred grams of carrageenan.

Compound | effect on powdery mildew that had overwintered on ornamental pea leaves (powdery mildew; overwintered powdery mildew, ornamental pea leaves) | eliminating infestations of powdery mildew (powdery mildew) | efficacy against fusarium, each product separately (fusarium) | effect on Tomato Russet Mites [1]
O=C([O-])O.[Na+] [sodium bicarbonate] | unaffected | ineffective | – | –
O=C([O-])O.[K+] [potassium bicarbonate] | – | – | shown efficacy | –
C/C=C/C=C/C(=O)[O-].[K+] [potassium sorbate] | – | ineffective | – | no effect
